Among the data in patent publication US10239843B2 (CANCER RESEARCH TECHNOLOGY LIMITED, priority 2014, dated 2019) are IC50 values, retold here.

The target in assay [1] is Human Full Length PARG (Homo sapiens (Human), UniProt Q86W56). Description: PARG enzyme assay (TR-FRET). The assay is classed as biochemical. To be noted: read-out: PARG Biochem IC50.
In assay [2] the test system is PARG in HeLa cell line. Description: PARG cell assay (PAR chain immunofluorescence after MMS). To be noted: HeLa cells, MMS treatment, read-out: PARG Cell IC50. The assay is classed as cell-based. The procedure, abridged: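 HeLa cells were dosed with compound for 1 h, then given MMS at 50 μg/mL final for a further hour. Cells were methanol-fixed, permeabilised and stained overnight at 4° C with anti-PAR monoclonal antibody. Retained nuclear PAR chains, detected by indirect immunofluorescence, indicate PARG inhibition.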

pIC50: −log10 of the molar value. Like-named read-outs stand apart in the source and are kept apart here.

Chain of Human Full Length PARG (Q86W56 whole entry): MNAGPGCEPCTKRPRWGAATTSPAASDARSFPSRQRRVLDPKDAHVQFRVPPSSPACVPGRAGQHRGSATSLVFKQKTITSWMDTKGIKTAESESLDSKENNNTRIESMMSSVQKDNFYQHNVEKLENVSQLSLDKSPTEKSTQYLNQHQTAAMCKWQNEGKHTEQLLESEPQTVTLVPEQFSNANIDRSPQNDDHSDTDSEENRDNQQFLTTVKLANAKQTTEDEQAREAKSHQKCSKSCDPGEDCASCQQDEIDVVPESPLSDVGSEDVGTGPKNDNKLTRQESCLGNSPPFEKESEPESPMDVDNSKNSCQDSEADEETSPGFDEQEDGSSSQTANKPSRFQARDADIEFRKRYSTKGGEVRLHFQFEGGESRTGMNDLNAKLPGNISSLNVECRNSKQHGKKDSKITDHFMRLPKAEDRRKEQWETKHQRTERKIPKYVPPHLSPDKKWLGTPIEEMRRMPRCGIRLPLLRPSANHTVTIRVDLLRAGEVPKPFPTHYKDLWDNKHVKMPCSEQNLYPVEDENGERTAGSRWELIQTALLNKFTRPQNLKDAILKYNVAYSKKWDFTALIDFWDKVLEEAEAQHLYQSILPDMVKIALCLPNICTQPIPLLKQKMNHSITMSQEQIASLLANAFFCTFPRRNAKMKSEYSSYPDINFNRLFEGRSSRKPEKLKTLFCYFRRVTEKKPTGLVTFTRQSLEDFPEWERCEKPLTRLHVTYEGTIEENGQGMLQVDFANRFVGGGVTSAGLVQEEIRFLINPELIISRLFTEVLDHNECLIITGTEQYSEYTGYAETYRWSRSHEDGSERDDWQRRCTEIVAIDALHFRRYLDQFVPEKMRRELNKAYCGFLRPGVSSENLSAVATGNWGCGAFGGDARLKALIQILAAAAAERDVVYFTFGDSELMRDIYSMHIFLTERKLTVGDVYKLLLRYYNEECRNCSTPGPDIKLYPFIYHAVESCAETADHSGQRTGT

As to `CCCn1c(=O)n(Cc2cc(C)no2)c(=O)c2cc(S(=O)(=O)NC3(CF)CC3)ccc21` [Example 535, N-[1-(Fluoromethyl)cyclopropyl]-3-[(3-methylisoxazol-5-yl)methyl]-2,4-dioxo-1-propyl-quinazoline-6-sulfonamide], the pIC50 (commonly the IC50 on a negative log10 scale, so that one unit is a factor of ten) in assay [1] is 6.72; in assay [2] (Homo sapiens), 6.83.
With `CCCCn1c(=O)n(Cc2cc(C)no2)c(=O)c2cc(S(=O)(=O)NC3(CF)CC3)ccc21` [Example 536, 1-Butyl-N-[1-(fluoromethyl)cyclopropyl]-3-[(3-methylisoxazol-5-yl)methyl]-2,4-dioxo-quinazoline-6-sulfonamide], the pIC50 was 6.58 in assay [1] and 6.42 in assay [2].
`Cc1ccc(Cn2c(=O)n(Cc3cnn(C)c3)c(=O)c3cc(S(=O)(=O)NC4(CF)CC4)ccc32)nc1` [Example 537, N-[1-(Fluoromethyl)cyclopropyl]-3-[(1-methylpyrazol-4-yl)methyl]-1-[(5-methyl-2-pyridyl)methyl]-2,4-dioxo-quinazoline-6-sulfonamide]: the pIC50 in assay [1] was 6.72; in assay [2] (Homo sapiens), 6.74.
On to `Cn1cc(Cn2c(=O)c3cc(S(=O)(=O)NC4(CF)CC4)ccc3n(Cc3cccc(C#N)n3)c2=O)cn1` [Example 538, 1-[(6-Cyano-2-pyridyl)methyl]-N-[1-(fluoromethyl)cyclopropyl]-3-[(1-methylpyrazol-4-yl)methyl]-2,4-dioxo-quinazoline-6-sulfonamide], for which the pIC50 in assay [1] was 6.79; in assay [2] it was 6.41.
Take `Cc1cncc(Cn2c(=O)n(Cc3cnn(C)c3)c(=O)c3cc(S(=O)(=O)NC4(CF)CC4)ccc32)c1` [Example 539, N-[1-(Fluoromethyl)cyclopropyl]-3-[(1-methylpyrazol-4-yl)methyl]-1-[(5-methyl-3-pyridyl)methyl]-2,4-dioxo-quinazoline-6-sulfonamide]: the values for the pIC50 in assay [1] and in assay [2] (Homo sapiens) were 7.14 and 6.73, respectively.
On to `Cn1cc(Cn2c(=O)c3cc(S(=O)(=O)NC4(CF)CC4)ccc3n(Cc3cccc(F)n3)c2=O)cn1` [Example 540, N-[1-(Fluoromethyl)cyclopropyl]-1-[(6-fluoro-2-pyridyl)methyl]-3-[(1-methylpyrazol-4-yl)methyl]-2,4-dioxo-quinazoline-6-sulfonamide], for which the pIC50 in assay [1] is 6.80; in assay [2] (Homo sapiens), 7.02.
`Cc1cc(Cn2c(=O)n(Cc3cnn(C)c3)c(=O)c3cc(S(=O)(=O)NC4(CF)CC4)ccc32)ccn1` [Example 541, N-[1-(Fluoromethyl)cyclopropyl]-3-[(1-methylpyrazol-4-yl)methyl]-1-[(2-methyl-4-pyridyl)methyl]-2,4-dioxo-quinazoline-6-sulfonamide]: the pIC50 in assay [1] is 6.95; in assay [2] (Homo sapiens) it was 6.64.
For `Cn1cc(Cn2c(=O)c3cc(S(=O)(=O)NC4(CF)CC4)ccc3n(Cc3ncccc3F)c2=O)cn1` [Example 542, N-[1-(Fluoromethyl)cyclopropyl]-1-[(3-fluoro-2-pyridyl)methyl]-3-[(1-methylpyrazol-4-yl)methyl]-2,4-dioxo-quinazoline-6-sulfonamide], the negative logarithm of the IC50 (pIC50) is 6.46 in assay [1] and 6.48 in assay [2] (Homo sapiens).
On to `Cn1cc(Cn2c(=O)c3cc(S(=O)(=O)NC4(CF)CC4)ccc3n(Cc3ccc(C#N)cc3)c2=O)cn1` [Example 543, 1-[(4-Cyanophenyl)methyl]-N-[1-(fluoromethyl)cyclopropyl]-3-[(1-methylpyrazol-4-yl)methyl]-2,4-dioxo-quinazoline-6-sulfonamide], for which the pIC50 in assay [1] was 7.24; in assay [2] (Homo sapiens), 7.15.
The corresponding values for `Cn1cc(Cn2c(=O)c3cc(S(=O)(=O)NC4(CF)CC4)ccc3n(CCF)c2=O)cn1` [Example 544, 1-(2-Fluoroethyl)-N-[1-(fluoromethyl)cyclopropyl]-3-[(1-methylpyrazol-4-yl)methyl]-2,4-dioxo-quinazoline-6-sulfonamide] are 6.82 and 7.07.
Consider `Cc1noc(C)c1Cn1c(=O)n(Cc2cnn(C)c2)c(=O)c2cc(S(=O)(=O)NC3(CF)CC3)ccc21` [Example 545, 1-[(3,5-Dimethylisoxazol-4-yl)methyl]-N-[1-(fluoromethyl)cyclopropyl]-3-[(1-methylpyrazol-4-yl)methyl]-2,4-dioxo-quinazoline-6-sulfonamide], for which the negative logarithm of the IC50 (pIC50) in assay [1] was 6.84; in assay [2] (Homo sapiens) it was 6.77.
Turning to `Cc1nc(Cn2c(=O)n(Cc3cnn(C)c3)c(=O)c3cc(S(=O)(=O)NC4(CF)CC4)ccc32)no1` [Example 546, N-[1-(Fluoromethyl)cyclopropyl]-1-[(5-methyl-1,2,4-oxadiazol-3-yl)methyl]-3-[(1-methylpyrazol-4-yl)methyl]-2,4-dioxo-quinazoline-6-sulfonamide], the pIC50 is 6.82 in assay [1] and 6.74 in assay [2] (Homo sapiens).
For the compound `Cc1nc(Cn2c(=O)n(Cc3cnn(C)c3)c(=O)c3cc(S(=O)(=O)NC4(CF)CC4)ccc32)n(C)n1` [Example 547, 1-[(2,5-Dimethyl-1,2,4-triazol-3-yl)methyl]-N-[1-(fluoromethyl)cyclopropyl]-3-[(1-methylpyrazol-4-yl)methyl]-2,4-dioxo-quinazoline-6-sulfonamide], the pIC50 in assay [1] was 6.73; in assay [2] (Homo sapiens), 6.12.
As to `Cc1ncc(Cn2c(=O)n(Cc3cnn(C)c3)c(=O)c3cc(S(=O)(=O)NC4(CF)CC4)ccc32)o1` [Example 548, N-[1-(Fluoromethyl)cyclopropyl]-1-[(2-methyloxazol-5-yl)methyl]-3-[(1-methylpyrazol-4-yl)methyl]-2,4-dioxo-quinazoline-6-sulfonamide], the pIC50 in assay [1] is 7.47; in assay [2] (Homo sapiens), 7.20.
With `CC(C)Cn1c(=O)n(Cc2cnn(C)c2)c(=O)c2cc(S(=O)(=O)NC3(CF)CC3)ccc21` [Example 549, N-[1-(Fluoromethyl)cyclopropyl]-1-isobutyl-3-[(1-methylpyrazol-4-yl)methyl]-2,4-dioxo-quinazoline-6-sulfonamide], the figures for the pIC50 in assay [1] and in assay [2] were 6.85 and 7.04, respectively.
For `Cc1cc(Cn2c(=O)c3cc(S(=O)(=O)NC4(CF)CC4)ccc3n(Cc3csc(C)n3)c2=O)on1` [Example 550, N-[1-(Fluoromethyl)cyclopropyl]-3-[(3-methylisoxazol-5-yl)methyl]-1-[(2-methylthiazol-4-yl)methyl]-2,4-dioxo-quinazoline-6-sulfonamide], the pIC50 in assay [1] is 6.72; in assay [2], 6.87.
For `Cc1cc(Cn2c(=O)c3cc(S(=O)(=O)NC4(CF)CC4)ccc3n(Cc3nncn3C)c2=O)on1` [Example 551, N-[1-(Fluoromethyl)cyclopropyl]-3-[(3-methylisoxazol-5-yl)methyl]-1-[(4-methyl-1,2,4-triazol-3-yl)methyl]-2,4-dioxo-quinazoline-6-sulfonamide], the pIC50 in assay [1] is 6.39; in assay [2] (Homo sapiens), 4.69.
With `Cc1cc(Cn2c(=O)c3cc(S(=O)(=O)NC4(CF)CC4)ccc3n(Cc3nnc(C)s3)c2=O)on1` [Example 552, N-[1-(Fluoromethyl)cyclopropyl]-3-[(3-methylisoxazol-5-yl)methyl]-1-[(5-methyl-1,3,4-thiadiazol-2-yl)methyl]-2,4-dioxo-quinazoline-6-sulfonamide], the pIC50 in assay [1] was 6.76; in assay [2] (Homo sapiens), 6.80.
